Measurements reported in patent publication US7268118B2, “Thymosin β4 compositions” (United States of America as represented by The Secretary of …, priority 1998, dated 2007).

Experiments:
primary keratinocytes = experiment: Keratinocyte migration assay in Boyden chamber; type: cell-based, mice
Description: Primary keratinocytes were prepared from either Balb/c or CD-1 newborn mice as described previously (Dlugosz et al., 1995). Cells were plated in calcium- and magnesium-free Eagle's Minimal Essential Medium (EMEM) containing 8% fetal calf serum treated with 8% Chelex (Bio-Rad Laboratories, Hercules, Calif.), 20 units/ml penicillin-streptomycin, and the calcium concentration was adjusted to 0.25 mM. The following day, cultures were washed with calcium- and magnesium-free phosphate buffered saline, treated briefly with Trypsin (Life Technologies, Gaithersburg, Md.), washed with culture medium and resuspended in EMEM containing 0.05 mM calcium. Cells were used immediately in migration assays.
Keratinocyte migration assays were carried out in Boyden chamber using 12 μm pore polyester membranes (Poretics, Livermore, Calif.) coated with a 0.1 mg/ml solution of collagen IV in dH2O (Trevigen, Gaithersburg, Md.). Filters were then dried at least 1 h. Cells were harvested using Versene or Trypsin (Life Technologies, Gaithersburg, Md.) and resuspended in Eagle's minimal essential medium with 0.05 mM Ca^2+. The bottom chamber was loaded with EMEM containing 0.01, 0.1, 10, 100, and 1000 ng/ml of synthetic Tβ4. […] The cells that migrated through the filter were quantitated by counting the center of each well at 10× using an Olympus CK2 microscope. […]

[1] = test system: full thickness cutaneous rat wound; experiment: Full thickness punch biopsy wound healing in rats; type: in vivo; details: for decrease in wound width relative to saline treated controls: intraperitoneal 60 μg in 300 μl
Description: Full thickness 8 mm punch biopsy wounds were made on the dorsal surface of rats as previously reported (Bhartiya et al., J. Cell. Physiol. 150:312, 1992; Sihhu et al., J. Cell. Physiol. 169:108, 1996) and Tβ4 was given topically at the time of wounding (5 μg in 50 μl) and again after 48 hours. Controls for the topical treatment received identical amounts of saline at the time of wounding and at 48 hours. Additional rats received intraperitoneal injections at the time of wounding (60 μg in 300 μl) and again every other day (e.g., days 0, 2, 4, and 6). Controls for these animals received identical amounts of saline intra-peritoneally on the same injection schedule. On days 4 and 7 post-wounding, measurements were made on the wound size. At days 8 and 9 post-wounding, tissue was collected and fixed in 10% buffered formalin. The samples were sectioned and stained with H&E and Masson's Trichrome (American Histolabs, Gaithersburg, Md.).
Histological sections were used to measure the re-epithelialization and the contraction of the wound using an ocular micrometer. Epidermal migration was determined by measuring the lengths of the tongues of epithelium migrating form either side of the wound over the wound bed from the zone of proliferation at the margin of the uninjured and wounded skin. Epidermal thickness was also measured beginning at the junction of the uninjured and proliferating epidermis. The thickness was measured vertically from the basement membrane to the most superficial layer of the migrating epidermis at every 200 microns. The mean epidermal thickness of each migrating tongue of epidermis was then computed from each wound. Vessel counts were performed by first identifying vascular spaces by their endothelial lining. All such vessels in the wound bed were counted including those at the junction of the dermis and the subcutis, since angiogenesis into the wounds occurs to a great extent from these vessels. The numbers were averaged into vessel counts per 10 high powered fields (40×).
The effect of Tβ4 on wound healing was studied in a full thickness cutaneous rat wound model. […] This model allowed measurement of two parameters: the re-epithelialization (gap) and the contraction (width) of the wound.

[2] = test system: wounds of steroid treated rats; experiment: Impaired healing model (hydrocortisone treated rats); type: in vivo, rat
Description: Steroid treatment reduces the rate of wound repair in mammals. Rats treated with steroids such as hydrocortisone serve as a model of impaired wound healing due to the delay observed in wound closure. Animals were injected intramuscularly everyday with hydrocortisone.

[3] = test system: de-epithelialized Rat corneas; experiment: In vivo corneal re-epithelialization
Description: To determine the effect of Tβ4 on corneal re-epithelialization in vivo, Rat corneas were de-epithelialized and treated with Tβ4. Filters were soaked in heptanol, applied to the eye for 30 seconds, and then the epithelium was scraped. Various concentration of Tβ4 in saline was applied to the eye and at 24 hours the rats were sacrificed. The eyes were fixed, sectioned and the degree of corneal epithelial migration (as measured in pixels) was determined using a microscope with an internal caliper by a masked observer.

Corneal Epithelial Cell = experiment: Corneal epithelial cell migration assay in Boyden chamber; type: cell-based
Description: Corneal Epithelial Cell migration assays were carried out in Boyden chamber using 12 μm pore polyester membranes (Poretics, Livermore, Calif.) coated with a 0.1 mg/ml solution of collagen IV in dH2O (Trevigen, Gaithersburg, Md.). Filters were then dried at least 1 h. Cells were cultured and resuspended in Eagle's Minimal Essential Medium with 0.05 mM Ca^2+. The bottom chamber was loaded with EMEM containing 0.01, 0.1, 10, 100, and 1000 ng/ml of synthetic Tβ4. Conditioned medium from primary dermal fibroblasts and/or keratinocyte growth factor was added to several wells as a positive control. Cells were added to the upper chamber at a concentration of 50,000 cells per well. Chambers were incubated at 35 C/7% CO2 for 4-5 hours and the filters were then fixed and stained using Diff-Quik (Baxter Healthcare Corporation, McGraw Park, Ill.). The cells that migrated through the filter were quantitated by counting the center of each well at 10× using an Olympus CK2 microscope. Each condition was assayed in triplicate wells and each experiment was repeated four times with different preparations of cells. […] Migration was enhanced 2-3 fold over migration in the presence of media alone (FIG. 7) with the highest level of migration seen at 100 ng/ml of Tβ4.

[4] = intraperitoneal injection, day 4
[5] = intraperitoneal injection, day 7

Question: With thymosin β4 [Tβ4] as the substance, how does the “migration at the maximal responding dose versus positive control” value (primary keratinocytes) read?
Answer: The value was “exceeded the positive control”.

Question: And the “keratinocyte migration over media alone” value (primary keratinocytes; 4-5 hours, filters coated with collagen IV)?
Answer: The value was 2-3 fold.

Question: What about the “increase in the number of vessels in treated wounds” value ([1]; 7 day wounds) of the same substance?
Answer: Its value is “about 2 fold”.

Question: And the “decrease in wound width as compared to the saline controls” value ([1]; FIG. 2, topical 5 μg in 50 μl, as early as 4 days after wounding, continued until day 7)?
Answer: The value was 15%.

Question: What about the “Epidermal Migration” value ([1]; I.P.) of the same substance?
Answer: The value was 3168.3 ± 38.4 μm.

Question: What about the “Epidermal Thickness” value ([1]; I.P.) of the same substance?
Answer: The value was 135.0 ± 11.7 μm.

Question: What about the “Vessels/10 HPF” value ([1]; I.P.) of the same substance?
Answer: Its value is 2415.0 ± 24.3.

Question: What about the “Epidermal Migration” value ([1]; Topical) of the same substance?
Answer: The value was 3668.7 ± 56.6 μm.

Question: And the “Epidermal Thickness” value ([1]; Topical)?
Answer: Its value is 142.3 ± 19.8 μm.

Question: What about the “Vessels/10 HPF” value ([1]; Topical) of the same substance?
Answer: Its value is 2186.0 ± 11.8.

Question: And the “re-epithelialization of the wound (histology)” value ([1]; day 7, intraperitoneal 60 μg/300 μl on alternate days)?
Answer: Its value is “Increased re-epithelialization”.

Question: What about the “neovascularization of the dermis (histology)” value ([1]; day 7, intraperitoneal and topical) of the same substance?
Answer: Its value is “significant new capillaries”.

Question: And the “re-epithelialization of the wound (histology)” value ([1]; day 7, topical 5 μg/50 μl)?
Answer: The value was “complete reepithelialization”.

Question: And the “thickness of the migrating epidermis versus control” value ([1]; either Tβ4 treatment (I.P., topical))?
Answer: The value was “no difference”.

Question: And the “effect on wound healing at lower dose” value ([1]; intraperitoneal 6 μg in 300 μl)?
Answer: Its value is “no effect”.

Question: What about the “effect on wound healing at lower dose” value ([1]; intraperitoneal 30 μg in 300 μl) of the same substance?
Answer: The value was “reduced”.

Question: What about the “decrease in wound width relative to saline treated controls” value ([1]; day 4) of the same substance?
Answer: Its value is 18%.

Question: What about the “decrease in wound width relative to saline treated controls” value ([1]; day 7) of the same substance?
Answer: The value was 11%.

Question: And the “decrease in gap size relative to saline treated controls” value ([1]; intraperitoneal, 4th day post wounding)?
Answer: Its value is 42%.

Question: And the “migration of epidermal tongues as compared to controls” value ([1]; intraperitoneally treated wounds)?
Answer: Its value is “statistically significant increase”.

Question: And the “number of macrophages in the wounds” value ([1]; rat, in vivo)?
Answer: The value was “No increases”.

Question: What about the “effect on wound healing at lower dose” value ([1]; topical 0.5 μg in 50 μl) of the same substance?
Answer: The value was “no effect”.

Question: What about the “effect on wound healing at lower dose” value ([1]; topical 2.5 μg in 50 μl) of the same substance?
Answer: The value was “reduced”.

Question: What about the “wound healing as compared to untreated wounds” value ([1]; topical or intraperitoneal) of the same substance?
Answer: Its value is “significantly accelerated wound healing”.

Question: What about the “increase in migration of epidermal tongues over the wound bed” value ([1]; topical treatment) of the same substance?
Answer: Its value is 1.5 fold.

Question: And the “decrease in gap length as compared to saline controls” value ([1]; topical, 4 days after wounding)?
Answer: Its value is 18%.

Question: What about the “decrease in width, treated versus controls” value ([1]; topical, time not stated (FIG. 2)) of the same substance?
Answer: The value was “about 15%”.

Question: What about the “decrease in gap, treated versus controls” value ([1]; topical, time not stated (FIG. 3)) of the same substance?
Answer: The value was “about 15%”.

Question: And the “decrease in gap size” value ([1]; wounds treated for 7 days, route not stated)?
Answer: Its value is 62%.

Question: And the “decrease in gap size” value [2, 4]?
Answer: The value was 28%.

Question: And the “decrease in wound width” value [2, 4]?
Answer: The value was 14%.

Question: What about the “decrease in gap size” value [2, 5] of the same substance?
Answer: The value was 26%.

Question: What about the “decrease in wound width” value [2, 5] of the same substance?
Answer: The value was 10%.

Question: What about the “level of healing in steroid treated rats” value ([2]; topical or intraperitoneal) of the same substance?
Answer: Its value is “significant increase in the level of healing”.

Question: What about the “gap or width closure compared to saline treatment” value ([2]; topical, day 4, N=3) of the same substance?
Answer: The value was no more than 7%.

Question: What about the “decrease in gap compared to saline treatment” value ([2]; topical, day 7) of the same substance?
Answer: Its value is 39%.

Question: What about the “decrease in wound width” value ([2]; topical, day 7) of the same substance?
Answer: Its value is 23%.

Question: What about the “re-epithelialization of the cornea over untreated control” value ([3]; about 1 to 25 μg of Tβ4 in saline applied to the eye, 24 hours) of the same substance?
Answer: The value was 2 fold.

Question: And the “inflammation of treated eyes compared to non-treated corneas” value ([3]; rat, in vivo)?
Answer: Its value is “reduced inflammation”.

Question: And the “corneal epithelial cell migration over media alone” value (Corneal Epithelial Cell; 4-5 hours of exposure)?
Answer: The value was 2-3 fold.

Question: What about the “concentration with the highest level of migration” value (Corneal Epithelial Cell; tested 0.01-1000 ng/ml) of the same substance?
Answer: The value was 100 ng/mL.
